Measured values reported in patent publication US20180353461A1, “USE OF CANNABINOIDS AS CERAMIDE-GENERATING ANTICANCER AGENTS IN TUMORS OF THE HEMATOPOIETIC AND LYMPHOID TISSUES” (priority 2014, published 2018).

Assays:
Type in all cases: cell-based, human
[1] = system: U266 cells; assay: SPT expression, ceramide staining and SPT inhibition in U266 cells
Protocol: Except if otherwise indicated, for the viability assays primary cells were incubated 18 hours, with vehicle (with <0.15% DMSO) or cannabinoid. Meanwhile, the time course assays cells were performed at 0, 2, 6, 18 and 24 h. For the analysis of SPT activity, cells were co-incubated for the first 6 hours with the SPT inhibitor, myriocin, and the cannabinoid, WIN-55 or JWH-133.
(§1) Samples (15-25 ug/lane) were subjected to SDS/PAGE in pre-cast polyacrylamide gels AnykD (Bio-Rad Laboratories, Hercules, CA, USA) under reducing and denaturing conditions. Electrophoretic run was performed at a constant current of 15 mA per gel in a Mini-Protean® Tetra Cell (Bio-Rad Laboratories). Once proteins were separated by electrophoresis, were transferred onto PVDF membranes using Trans-Blot® Turbo™ System (Bio-Rad Laboratories). Electrotransference was conducted at constant amperage of 1.2 mA and at up to 25 V of voltage. The blotted membranes were then blocked with 2% bovine serum albumin [(BSA), Santa Cruz Biotechnology] in Tween-Tris buffer saline (TTBS) for 30 min with gentle agitation, and incubated overnight at 4° C. with corresponding primary antibody in TTBS. After twice washing with TTBS, membranes were incubated for 1-2 h at room temperature with suitable conjugated-HRP secondary antibody, and subjected to chemiluminescence detection using Western Blotting Luminol Reagent (Santa Cruz Biotechnology). Loading controls were carried out with an anti-beta-actin and anti-beta-tubulin antibodies (Sigma-Aldrich). Blots were captured using a digital imaging system ImageQuant LAS 4000 (Amersham GE Healthcare) and transferred to a digital image processing software to analyze (Adobe Photoshop CS2, version 9.0., Adobe Systems Inc., San Jose, Calif.).
After cannabinoids and/or antagonists or SPT inhibitor treatment, primary cells and cell lines were washed with PBS, collected and placed on slides (Menzel-Glaser, Thermo Fisher Scientific). Cells were fixed in cold 4% paraformaldehyde for 10 min, treated with sodium borohydride and, permeabilized in 0.02% Triton X-100 in PBS with 10% normal donkey serum for blocking. Then, cells were incubated with the anti-CB1 or anti-CB2 receptor antibodies, anti-active-caspase3, anti-ceramide in blocking buffer overnight at 4° C. in a humid chamber (Simport, Beloeil, QC, Canada). After washing with PBS, samples were further incubated for 90 min with Alexa 647- or Alexa 488—conjugated donkey secondary antibody. After twice washing, first with PBS and then with 50 mM Tris-HCl (pH 7.4), and were dipped in a solution of Sudan Black B (Sigma-Aldrich) in 70% methanol for 5 min. After immunocytochemistry, slides were mounted using Fluoromount Aqueous Mounting Medium (Sigma-Aldrich). Preparations were examined with an Olympus BX-61 microscope (Olympus, Hamburg, Germany) equipped with appropriate filters: FITC/Cy2 (green fluorophores) 460-490 nm bandpass excitation filter and 510-550 nm bandpass emission filter; rhodamine/Cy3 (red fluorophores) 541-551 nm excitation and 572-607 nm emission; and Cy5 (deep red fluorophore) 615-635 nm excitation and 655 nm longpass emission. Digital images were acquired with CellSens Dimension Software (Olympus) and contrasted with Photoshop CS2 Software (Adobe Systems Inc). […]
De novo synthesis of ceramides contribute to the apoptotic process triggered by cannabinoids. […] To this end, we analyzed the expression of serine palmitoyltransferase (SPT), the enzyme that catalyses the rate-limiting step of ceramide synthesis de novo. […]

[2] = system: HL60 cells; assay: Western blot time course of apoptotic proteins in HL60 cells
Protocol: Protein analyses were performed by Western blot in several sets of assays: expression pattern of CBs-receptors in AML cell lines and primary cells, and time course after treatment with cannabinoids in AML cell lines.
Cells were solubilized with ice-cold lysis buffer containing 2% ASB-14 (CalbioChem, San Diego, Calif., USA), 1% Nonidet P-40 (Ipegal®), 137 mM NaCl, 20 mM Tris-HCl pH 7.5 at 4° C. (all from Sigma-Aldrich), 2 mM Na3VO4, 20 mM NaF (New England BioLabs Inc., Ipswich, Mass., USA), 2 mM DTT (AppliChem, Darmstadt, Germany), protease inhibitor cocktail (Roche Diagnostics GmbH, Mannheim, Germany), and 10 ul Nuclease Mix (Amersham GE Healthcare, Uppsala, Sweden). Insoluble materials were removed by centrifugation at 13,000×g for 15 min at 4° C. Protein content was determined by Pierce® Microplate BCA Protein Assay kit-Reducing Agent Compatible (Thermo Fisher Scientific).
Extracted proteins (15-25 ug/well) were separated by sodium dodecyl sulfate-polyacrylamide gel electrophoresis (SDS/PAGE) in pre-cast polyacrylamide gels AnykD (Bio-Rad Laboratories, Hercules, Calif., USA) under reducing and denaturing conditions. Electrophoretic run was performed at a constant current of 15 mA per gel in a Mini-Protean® Tetra Cell (Bio-Rad Laboratories) and were electrophoretically transferred onto PVDF membranes using Trans-Blot® Turbo™ System (Bio-Rad Laboratories). Blocking was performed with 2% bovine serum albumin [(BSA), Santa Cruz Biotechnology] in Tween-Tris buffer saline (TTBS). Membranes were incubated overnight at 4° C. with corresponding primary antibody in TTBS.
Detection was performed using Western Blotting Luminol Reagent (Santa Cruz Biotechnology).
As in the case of MM cells, the antiproliferative effect of cannabinoids in AML is mediated by apoptotic mechanisms. […] Next, we evaluated Casp-3 activation using an antibody that recognizes the active forms of Casp-3, this is, the […]. […]

[3] = system: U266 cells; assay: Western blot of ER-stress regulator proteins in U266 cells; conditions: U266, WIN-55 50 uM
Protocol: as §1, with “Blots were captured using a digital imaging system ImageQuant LAS 4000 (Amersham GE Healthcare) and transferred to a digital image processing software to analyze (Adobe Photoshop CS2, version 9.0., Adobe Systems Inc., San Jose, Calif.).” left out
Cannabinoids attenuate the response to ER-stress in myelomatous cells. […] To test the effect of cannabinoids on ER-stress we analyzed the expression profile of ER-stress related proteins in myelomatous cells.

CS(=O)(=O)O.Cc1c(C(=O)c2cccc3ccccc23)c2cccc3c2n1[C@H](CN1CCOCC1)CO3 [WIN-55, (R)-(+)-[2,3-dihydro-5-methyl-3-(4-morpholinylmethyl)-pyrrolo-[1,2,3]-1,4-benzoxazin-6-yl]-1-naphthalenylmethanone mesylate]
SPT, 2 h after exposure ([1]; U266): moderate increase | time at which SPT reached the maximal level ([1]; U266): 18 h | ceramide by immunohistochemistry, compared to untreated cells ([1]; U266, 50 uM, 18 hours): remarkable increase | SPT expression level in myelomatous cells ([1]; U266, WIN-55 50 uM): enhanced | full-length PARP ([2]; HL60, WIN-55 50 uM, time course): decrease | 85 kDa fragment of PARP ([2]; HL60, time course): increase | expression of the active 12 kDa-cleaved form of Casp-3 ([2]; HL60, time course): increased over time | response to ER-stress: expression of CHOP, ATF-4, p-IRE1 [3]: attenuates the response to ER-stress
